Measured values reported in patent publication US20130005670A1, “COMBINATION COMPOSITION, COMPRISING AS ACTIVE INGREDIENTS L-CARNITlNE OR PROPIONYL L-CARNITlNE, FOR THE PREVENTION OR TREATMENT OF CHRONIC VENOUS INSUFFICIENCY” (SIGMA-TAU INDUSTRIE FARMACEUTICHE RIUNITE S.P.A., priority 2010, published 2013).

Experiments:
[1] = system: croton oil-induced hemorrhoid model in rats; experiment: croton oil-induced hemorrhoid model in rats (recto-anus coefficient); format: in vivo, rat; details: 24 hours after induction with croton oil (3%); oral once per day for five days; 20 mg/kg propionyl L-carnitine or L-carnitine, 30 mg/kg troxerutine, diosmine or hesperidine; RAC = weight of recto-anus (mg)/body weight (g); n = 5 rats
Experimental: Reduction of the Swelling of the Recto-Anus, in Croton Oil-Induced Hemorrhoid Model in Rats.
Male SD rats (6 weeks old, approximately 140 g) were purchased from Harlan Sprague Dawley and allowed to acclimate for 1 week. The rats were maintained in a pathogen-free facility in accordance with the National Research Council of Laboratory Animal care and use guidelines. Each experiment was preformed with age-matched rats 7-8 weeks old. The croton oil-induced hemorrhoid model in rats was performed according to the method published by Nishiki (Nishiki et al. (1988) Folia Pharmacology Japan 92:215-225; Nishiki et al. (1988) Folia Pharmacol. Japan 92:227-240). Briefly, a cotton swab with a diameter of 4 mm soaked with 0.16 mL of inducer (deionized water: pyridine: ethyl ether: 6% croton oil/ethyl ether (1:4:5:10) was applied to the rat's anus for 12 seconds. The final concentration of croton oil was 3%. The edema developed linearly until 7-8 hours after application and the severity of the edema was sustained for more than 24 hours. Twenty-four hours later, recto-anus tissue (approx. 10 mm long) was isolated after the rats were euthanized. The weights of rat body and recto-anus were measured. The recto-anus coefficient (RAC) was calculated using the formula: weight of recto-anus (mg)/body weight (g).
The compounds of the invention were administered orally suspended in saline (1 mL) once per day for five days. Last treatment with the compounds of the invention was made the day of induction of oedema with croton oil.
The compounds of the invention were administered alone or in combination at the following doses: 20 mg/kg propionyl L-carnitine or L-carnitine; 30 mg/kg troxerutine, diosmine or hesperidine.
Twenty-four hours after hemorrhoid induction with croton oil the RAC of rats was determined.

[2] = system: aortic rings precontracted by phenylephrine; experiment: relaxant effect on aortic rings precontracted by phenylephrine; set-up: species or system spontaneously hypertensive rats; details: 100 micro-molar each component, final concentration in organ chamber; SHR aortic rings precontracted by phenylephrine (1 micromolar); n=8
Experimental: Relaxant Effect on Aortic Rings of the Compounds Tested. The objective of this study was to investigate the vasoarelaxation effects of the compositions of the invention using isolated aorta from spontaneously hypertensive rats. The compounds tested were used at a concentration expressed as final concentration in the organ chamber. Male spontaneously hypertensive rats (SHR) 10-12 weeks old, weighing 250-300 g, were housed at 24±2° C. with 60±20% relative humidity, on a 12-h light-dark cycle. Rats were given free access to a diet of standard food and water. All experiments were performed according to the guidelines for the ethical treatment of animals of the European Union. The rats were killed by cervical dislocation and the aortae were rapidly dissected. The descending thoracic aorta was placed in a modified Krebs-Henseleit solution (PSS) containing (mM): NaCl 118, KCl 4.75, NaHCO3 25, MgSO4 1.2, CaCl2 1.8, KH2PO4 1.2 and glucose 11. After excess fat and connective tissue were removed, the aortae were cut into 2-3-mm rings. Aortic rings were mounted under a basal tension of 2 g in 20 mL organ baths containing PSS and attached to an isometric transducer (Harvard UF-1); the signal was recorded by a Powerlab data acquisition system (AD-Instruments). The tissue bath was maintained at 37° C. and bubbled with a 95% O2 and 5% CO2 gas mixture. The relaxant effect of compounds tested was assessed by adding the compound to aortic rings precontracted by phenylephrine (1 micromolar). After the aortae were contracted with phenylephrine and when the contractile response was reached, the test compound was added to the bath. All the results were expressed as a percentage of the maximal contraction of phenylephrine-induced responses. Results are expressed as percentages from the initial precontraction level. The significance was calculated on the actual contraction values means±SE (n=8 aorta preparations per group). Eight preparations were studied from a single aorta. The Student t-test was used as the comparison test for statistical analysis.

Compound: COc1ccc(-c2cc(=O)c3c(O)cc(O[C@@H]4O[C@H](CO[C@@H]5O[C@@H](C)[C@H](O)[C@@H](O)[C@H]5O)[C@@H](O)[C@H](O)[C@H]4O)cc3o2)cc1O [Diosmine, diosmine]
- RAC (recto-anus coefficient) [1]: 2.02
- % RELAXATION [2]: 10%

Compound: COc1ccc([C@@H]2CC(=O)c3c(O)cc(O[C@@H]4O[C@H](CO[C@@H]5O[C@@H](C)[C@H](O)[C@@H](O)[C@H]5O)[C@@H](O)[C@H](O)[C@H]4O)cc3O2)cc1O [Hesperidine, hesperidine]
- RAC (recto-anus coefficient) [1]: 2.07
- % RELAXATION [2]: 9%

Compound: C[N+](C)(C)C[C@H](O)CC(=O)[O-] [L-carnitine]
- RAC (recto-anus coefficient) [1]: 1.99
- % RELAXATION [2]: 25%

Compound: CCC(=O)O[C@H](CC(=O)[O-])C[N+](C)(C)C [Propionyl L-carnitine, propionyl L-carnitine]
- RAC (recto-anus coefficient) [1]: 1.96
- % RELAXATION [2]: 28%

Compound: C[C@@H]1O[C@@H](OC[C@H]2O[C@@H](Oc3c(-c4ccc(OCCO)c(OCCO)c4)oc4cc(OCCO)cc(O)c4c3=O)[C@H](O)[C@@H](O)[C@@H]2O)[C@H](O)[C@H](O)[C@H]1O [Troxerutine]
- RAC (recto-anus coefficient) [1]: 2.11
- % RELAXATION [2]: 10%
